Reference: patent US20190307690A1 (THE AMERICAN UNIVERSITY IN CAIRO, priority 2016, published 2019)

Tests used:
[1] = In-vitro drug release analysis (dialysis, PBS pH 7.4) with release kinetics and f1/f2 comparison; format: physicochemical; conditions: oxaliplatin release
Method: The drug release testing was conducted according to a described method (Shazly et al., Comparison of dialysis and dispersion methods for in vitro release determination of drugs from multilamellar liposomes, Dissolution Technol., vol. 15, no. 2, pp. 7-10, 2008). […] A volume of 0.5 ml of liposomal preparation was placed in a dialysis tubing (3.8 cm in length). Both ends were tied. The dialysis bag was suspended in 25 ml PBS at pH 7.4 and maintained at 37±0.5° C. (Shazly et al., 2008). The dispersion was rotated at 200 strokes/minute in a water bath shaker (Shazly et al., 2008). At predetermined time intervals of 0.25, 0.5, 1, 1.5, 2, 4, 6, 8, 12, 24, 48, and 72 h; 1 ml aliquots were sampled and replaced with 1 ml fresh pH 7.4 PBS, which was maintained at the same temperature as the samples being 37±0.5° C. Drug concentrations were determined using HPLC.
Two methods were used to investigate the kinetics of drug release profile from the prepared liposomal formulations.
This method involved the fitting of the release data to one of the following seven release kinetic models.
Where, Qt is the amount of drug released in time t, Q0 is the initial amount of drug in the solution and K0 is the zero order release constant expressed in units of concentration/time. To study the release kinetics, data obtained from in-vitro drug release studies were plotted as cumulative amount of drug released versus time.
Where, Ct is the concentration of drug released in time t, C0 is the initial concentration of drug, K1 is the first order rate constant. The data obtained were plotted as log cumulative percentage of drug remaining versus time which would yield a straight line with a slope of −K/2.303.
Where, Q is the amount of drug released in time t, KH is the Higuchi dissolution constant. The data obtained were plotted as cumulative percentage of drug released versus square root of time.
Where, Qt is the amount of drug remaining in time t, Q0 is the initial amount of the drug in liposome and KC is the rate constant for Hixson-Crowell rate equation. The data obtained were plotted as Cube root of cumulative percentage of drug remaining versus time.
Where Mt/M∞ is a fraction of drug released at time t, KP is the release rate constant and n is the release exponent. The data obtained were plotted as log (cumulative percentage of drug released) versus log (time).
Where [Mt/M∞] is a fraction of drug released at time t, KB is the release rate constant. To study the release kinetics, data obtained from in-vitro drug release were plotted as [d(Mt/M∞)/dt] against the root of time inverse on x-axis.
Where Vm is the maximum release rate, Km is the Michaelis-Menten constant, C is the amount of drug released, and t is time. The data obtained were plotted as drug release % versus time. Michaelis-menten was previously reported in describing the release kinetics of Ketorolac from silica nanoparticles (Lopez Goerneet al., Obtaining of sol-gel ketorolac-silica nanoparticles: Characterization and drug release kinetics, J. Nanomater., vol. 2013, 2013).
This method utilizes the difference factor (f1), similarity factor (f2) to compare the release profiles of different formulations by measuring the percent difference and the percent similarity respectively.
Where, n is the number of release sample time intervals, Rt, and Tt are the percent released at each time point, t, for the reference and test drug release profiles, respectively.

[2] = test system: MCF-7 cell line; assay: γ-H2AX assay (DNA damage); format: cell-based, human; conditions: 2 μM, 1 hr exposure, 24 hours in fresh media; preliminary data
Method: After incubation, the media was discarded and the cells were further incubated in fresh media for 24 hours. Cells were then fixed using formaldehyde and permeabilized with Triton X-100, and subsequently incubated with H2AX primary antibody for 1 hr. Then, cells were washed using PBS and were further incubated for 30 min. in FITC mouse secondary antibody and washed using PBS. Finally cells were stained using DAPI and observed under a fluorescence microscope.

[3] = reference [91]; cited from earlier work

Question: With N[C@@H]1CCCC[C@H]1N.O=C([O-])C(=O)[O-].[Pt+2] [Oxaliplatin, Platinum(2+) ethanedioate (1R,2R)-1,2-cyclohexanediamine (1:1:1)] as the compound, how does the “Baker-Lonsdale K (release rate constant)” value [1] read?
Answer: Its value is 0.1963.

Question: What about the “First-order K1 (release rate constant)” value [1] of the same compound?
Answer: The value was −0.0172.

Question: And the “Higuchi KH (rate constant)” value [1]?
Answer: The value was 4.5644.

Question: And the “Hixson-Crowell KC (cube root law release constant)” value [1]?
Answer: Its value is −0.0127.

Question: What about the “Korsmeyer-peppas n (slope exponent)” value [1] of the same compound?
Answer: Its value is 0.0257.

Question: What about the “Michaelis-Menten K (release rate constant)” value [1] of the same compound?
Answer: The value was 0.0422.

Question: What about the “Zero-order K0 (release rate constant)” value [1] of the same compound?
Answer: Its value is 0.3444.

Question: And the “F1 (difference factor)” value ([1]; Reference LP-Ox)?
Answer: Its value is 11.37.

Question: What about the “F2 (similarity factor)” value ([1]; Reference LP-Ox) of the same compound?
Answer: Its value is 50.60.

Question: And the “F1 (difference factor)” value ([1]; Reference LP-void-Oxpt)?
Answer: Its value is 22.47.

Question: And the “F2 (similarity factor)” value ([1]; Reference LP-void-Oxpt)?
Answer: The value was 38.25.

Question: And the “F1 (difference factor)” value ([1]; Reference Lipoxal)?
Answer: The value was 252.7.

Question: And the “F2 (similarity factor)” value ([1]; Reference Lipoxal)?
Answer: The value was 8.940.

Question: And the “DNA damage magnitude (γ-H2AX immunofluorescence), in words” value [2]?
Answer: The value was “relatively lower DNA damage”.

Question: What about the Cell membrane permeability [3] of the same compound?
Answer: The Cell membrane permeability was <1 × 10^−6 [91] cm/s.
